Measured values reported in patent US20040122209A1, “Products for regulating the degradation of collagen and methods for identifying same” (Shriners Hospital For Children, priority 2002, published 2004).

Assays:
Format in all cases: cell-based
[1] = tested on: adult bovine articular chondrocytes; test: Collagenase-cleaved type II collagen (COL2-3/4C ELISA) in bovine chondrocyte pellet culture; settings: preliminary studies; denatured 50° C. for 20 min; data not shown
Description: Adult bovine and human articular cartilage was obtained from metacarpophalangeal joints shortly (within 3 hours) after slaughter and from autopsy within 18 hr of death, respectively. Chondroctyes were released from freshly dissected articular cartilage specimens by sequential enzymatic digestion at 37° C. with trypsin and bacterial collagenase as previously described (Aimes, R. T., 1995). […]
The cell pellets and cartilage explant cultured for various times were digested for the extraction of collagenase-generated neoepitope COL2-3/4Cshort (Billinghurst, R. C. et al., (1997) supra) and denatured type II collagen epitope COL2-3/4m and total type II collagen (Hollander, A. P. et al. (1994a) supra), as previously described: Briefly, the harvested pellets were incubated overnight with 1.0 mg/ml α-chymotrypsin at 37° C. to cleave and solubilize denatured collagen leaving the above neoepitope and epitope intact. […] The COL2-3/4Cshort epitope (hereafter referred to as COL2-3/4Cshort) generated by cleavage of type II collagen by collagenase (Billinghurst, R. C. et al. (1997) supra) and intrachain epitope (COL2-3/4m) exposed in denatured type II collagen (Hollander, A. P. et al. (1994a) supra) were measured in α-chymotrypsin extracts by immunoassay. […] The release of the COL2-3/4C epitope into media was also measured by immunoassay. […]

[2] = tested on: bovine articular cartilage explant; test: Collagenase-cleaved type II collagen (COL2-3/4C) in bovine articular cartilage explant culture; settings: 0.1 and 1 μM from day 0; day 12; one way ANOVA
Description: The cartilages were prepared as previously described (Dahlberg, L. et al. (2000) supra. In brief, the cartilage samples were washed three times with basal culture medium containing Dulbecco's modified Eagle's medium (DMEM; Gibco BRL, Life Technologies, Grand Island, N.Y.) with 20 mM HEAPS buffer (pH 7.4) (Gibco BRL), 45 mM NaHCO3, 100 units/ml penicillin, 100 μg/ml streptomycin and 150 μg/ml gentamycin sulphate (Medium A). Full-depth cartilage slices from a single area, around 20 mm×20 mm were cut vertical to the articular surface and then into cubes of approximately 2 mm×2 mm (5-7 cubes were randomly obtained and wet weights about 50-70 mg/well determined).
The cartilage was assigned to 48 well plate (ca 40 mg/well) and kept in Medium A supplemented with 50 μg/ml ascorbic acid, 0.1 mg/bovine serum albumin, 50 μg/ml insulin, 5.0 μg/ml and 5.0 μg/ml sodium DMEM alone at 37° C. in 95% air/5% CO2. The cartilage was precultured for 2 days and medium was changed at day 0. Thereafter medium (as described in pellet cultures) was replaced every four days. Various CNBr fragments and/or synthetic peptides were freshly added from day 0 at each medium change. Thereafter, cartilage explants and conditioned media were harvested and stored at −20° C.
The cell pellets and cartilage explant cultured for various times were digested for the extraction of collagenase-generated neoepitope COL2-3/4Cshort (Billinghurst, R. C. et al., (1997) supra) and denatured type II collagen epitope COL2-3/4m and total type II collagen (Hollander, A. P. et al. (1994a) supra), as previously described: Briefly, the harvested pellets were incubated overnight with 1.0 mg/ml α-chymotrypsin at 37° C. to cleave and solubilize denatured collagen leaving the above neoepitope and epitope intact. After inhibition of α-chymotrypsin activity with N-tosyl-L-phenelalanine-chloromethyl ketone (Sigma), the samples were centrifuged and the supernatants were removed and boiled for 10 min. The COL2-3/4Cshort epitope (hereafter referred to as COL2-3/4Cshort) generated by cleavage of type II collagen by collagenase (Billinghurst, R. C. et al. (1997) supra) and intrachain epitope (COL2-3/4m) exposed in denatured type II collagen (Hollander, A. P. et al. (1994a) supra) were measured in α-chymotrypsin extracts by immunoassay. The COL2-3/4Cshort epitope is detected in an ELISA assay using a rabbit antibody to the carboxyterminal cleavage neoepitope on the TCA piece generated by primary collagenase cleavage of type II collagen. The release of the COL2-3/4C epitope into media was also measured by immunoassay. Total contents in tissue/cells and media was recorded for COL2-3/^4Cshort epitope. The COL2-3/4m epitope was recorded in cells and tissue where it was concentrated. The remaining residues of pellets and explants were digested overnight with 1.0 mg/ml proteinase K at 56° C. to extract the remaining intact type II collagen and then boiled for 10 min to denature the enzyme. Total type II collagen content in the pellets and explant was determined from the collective amount of COL2-3/4m in both the α-chymotrypsin and proteinase K digests.

[3] = tested on: bovine articular cartilage explant; test: Proteoglycan (GAG) content and release in bovine explant culture; settings: 0.1 and 1 μM from day 0
Description: The cartilages were prepared as previously described (Dahlberg, L. et al. (2000) supra. In brief, the cartilage samples were washed three times with basal culture medium containing Dulbecco's modified Eagle's medium (DMEM; Gibco BRL, Life Technologies, Grand Island, N.Y.) with 20 mM HEAPS buffer (pH 7.4) (Gibco BRL), 45 mM NaHCO3, 100 units/ml penicillin, 100 μg/ml streptomycin and 150 μg/ml gentamycin sulphate (Medium A). Full-depth cartilage slices from a single area, around 20 mm×20 mm were cut vertical to the articular surface and then into cubes of approximately 2 mm×2 mm (5-7 cubes were randomly obtained and wet weights about 50-70 mg/well determined). The cartilage was assigned to 48 well plate (ca 40 mg/well) and kept in Medium A supplemented with 50 μg/ml ascorbic acid, 0.1 mg/bovine serum albumin, 50 μg/ml insulin, 5.0 μg/ml and 5.0 μg/ml sodium DMEM alone at 37° C. in 95% air/5% CO2. The cartilage was precultured for 2 days and medium was changed at day 0. Thereafter medium (as described in pellet cultures) was replaced every four days. Various CNBr fragments and/or synthetic peptides were freshly added from day 0 at each medium change. Thereafter, cartilage explants and conditioned media were harvested and stored at −20° C. In order to show the specificity of the peptide fragments of one embodiment on degradation of type II collagen as compared with proteoglycan, primarily aggrecan, sulphated glycosaminoglycan (GAG) content was determined in both the α-chymotrypsin and proteinase K digests for total proteoglycan (predominantly aggrecan) content in cell pellets, cartilage explants and also in conditioned media. Measurement of release of proteoglycan into media was tested using dimethylene blue dye binding as previously described (Dahlberg, L. et al. (2000) supra).

Substance: denatured type II collagen: denatured type II collagen purified from fetal bovine epiphyseal cartilage
- difference between pellet cultures treated with and without denatured type II collagen [1]: no significant difference
- COL2-3/4C content in medium and cartilage [2]: no effect
- GAG-release into culture media [3]: no effect
- proteoglycan (GAG) contents [3]: no effect
